Tests used:
RCC4/VHL = assay: Lactate production (glycolysis), RCC4/VHL; format: cell-based, human; conditions: 5 μM
Experimental: (§1) All cells were grown in DMEM+10% FCS. ACHN and ACHN shVHL were a kind gift from George V. Thomas (UCLA). HIF overexpressing clones were described previously. Transfection of RNA oligos were performed with DnarmaFECT Reagent 1 (Dharmcon), according to manufacturer's directions. ON-TARGETplus SMART pools against HIF-1β/ARNT were purchased from Dharmacon. Glut1 was detected with anti-GLUT1 antibody from NeoMarkers/LabVision/Fisher. Pyruvate/lactate levels and hexokinase activity were both measured by fluorometric assay (BioVision and Sigma-Aldrich, respectively). ATP levels were measured by bioluminescence assay (ATP Determination Kit from Molecular Probes/Invitrogen). In vitro kinase activities were performed by Millipore KinaseProfiler. Affi-Gel 10 (BioRad) activated affinity media was coupled to analogs to generate immobilized affinity linkers.
(§2) As the central mediator of oxygen homeostasis, HIF plays an important role in the cellular adaptation to low oxygen conditions through the regulation of genes involved in metabolism and energy production. Inactivation of VHL results in an increase in the half-life of HIF protein. […] To examine whether this compound alters the rate of glycolysis in VHL-deficient cells, we measured the intracellular production of lactate, which is rapidly converted from pyruvate, the end-product of glycolysis. […]

RCC4 [1] = assay: Lactate production (glycolysis), RCC4; format: cell-based; conditions: Homo sapiens; RCC4, 5 μM, compared to control-treated cells; read-out: inhibition of lactate production in VHL-deficient cells
Experimental: as §1, §2

MLK1 = biological target: T1, MLK1 (Homo sapiens, UniProt P80192); assay: In vitro kinase activity (Millipore KinaseProfiler): MLK1; format: biochemical; conditions: no head or unit printed
T1 construct: purchased Millipore (KinaseProfiler service)
Experimental: as §1
(§3) We next wanted to investigate the differential glucose uptake between RCCs with and without VHL treated with compound 47 that subsequently lead to the selective death of VHL-deficient cells. We first examined the message levels of the two main glucose transporters, GLUT1 and GLUT2 by quantitative real-time PCR. GLUT1 is an inducible, high-affinity glucose transporter, while GLUT2 is the glucose transporter responsible for basal glucose uptake. […] Cells deficient in VHL had very low levels of GLUT2 that could barely be detected (FIG. 3J). […]

PDK1 = biological target: T2, PDK1 (Homo sapiens, UniProt O15530); assay: In vitro kinase activity (Millipore KinaseProfiler): PDK1; format: biochemical; conditions: no head or unit printed
T2 construct: purchased Millipore (KinaseProfiler service)
T2 sequence (O15530 whole entry): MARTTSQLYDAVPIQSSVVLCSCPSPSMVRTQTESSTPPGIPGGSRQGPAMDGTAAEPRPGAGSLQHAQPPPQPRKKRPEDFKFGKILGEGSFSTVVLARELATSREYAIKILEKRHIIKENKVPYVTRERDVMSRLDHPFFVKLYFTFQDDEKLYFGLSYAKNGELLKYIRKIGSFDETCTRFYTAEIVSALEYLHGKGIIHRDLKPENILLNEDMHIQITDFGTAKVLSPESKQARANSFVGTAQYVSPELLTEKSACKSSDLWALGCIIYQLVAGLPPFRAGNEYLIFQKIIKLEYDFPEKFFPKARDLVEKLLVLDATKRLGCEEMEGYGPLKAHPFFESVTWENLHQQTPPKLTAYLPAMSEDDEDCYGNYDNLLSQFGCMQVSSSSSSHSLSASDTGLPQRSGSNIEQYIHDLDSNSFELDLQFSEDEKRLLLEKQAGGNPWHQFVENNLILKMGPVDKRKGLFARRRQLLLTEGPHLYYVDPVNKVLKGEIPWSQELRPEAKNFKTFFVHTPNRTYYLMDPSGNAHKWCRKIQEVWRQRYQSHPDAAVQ
Experimental: as §1, §3

RCC4 [2] = assay: 3H-2-deoxyglucose uptake, RCC4; format: cell-based, human
Experimental: One hundred thousand cells were plated into 6-well plates. The following day, the cells were treated with vehicle or drug and incubated for the indicated time. Cells were washed twice in phosphate buffered saline and low glucose media was added for 30 minutes. Cells were then incubated with 0.5 microCi of tritiated-2-deoxyglucose and incubated for an hour at 37° C. Cells were washed twice in PBS and then lysed in 0.2 N NaOH and 0.2% SDS. Lysates were transferred to scintillation tubes with scintillation fluid and quantified by scintillation counter.
One hundred thousand cells were plated per well in a six-well plate. The next day, cells were treated with the indicated concentration of drug and incubated for the indicated time. Cells were then washed twice with phosphate-buffered saline, incubated in low-glucose medium for 30 minutes, and ^3H-2-deoxyglucose (0.5 μCi) was added in 1 ml of glucose-free media for an additional hour. Cells were washed twice in PBS and lysed (0.2 N NaOH and 0.2% sodium dodecyl sulfate). Glucose uptake was quantified with a scintillation counter.

FGFR1 = biological target: T3, FGFR1 (Homo sapiens, UniProt P11362); assay: In vitro kinase activity (Millipore KinaseProfiler): FGFR1; format: biochemical; conditions: no head or unit printed
T3 construct: purchased Millipore (KinaseProfiler service)
T3 sequence (P11362 22-822, species assumed): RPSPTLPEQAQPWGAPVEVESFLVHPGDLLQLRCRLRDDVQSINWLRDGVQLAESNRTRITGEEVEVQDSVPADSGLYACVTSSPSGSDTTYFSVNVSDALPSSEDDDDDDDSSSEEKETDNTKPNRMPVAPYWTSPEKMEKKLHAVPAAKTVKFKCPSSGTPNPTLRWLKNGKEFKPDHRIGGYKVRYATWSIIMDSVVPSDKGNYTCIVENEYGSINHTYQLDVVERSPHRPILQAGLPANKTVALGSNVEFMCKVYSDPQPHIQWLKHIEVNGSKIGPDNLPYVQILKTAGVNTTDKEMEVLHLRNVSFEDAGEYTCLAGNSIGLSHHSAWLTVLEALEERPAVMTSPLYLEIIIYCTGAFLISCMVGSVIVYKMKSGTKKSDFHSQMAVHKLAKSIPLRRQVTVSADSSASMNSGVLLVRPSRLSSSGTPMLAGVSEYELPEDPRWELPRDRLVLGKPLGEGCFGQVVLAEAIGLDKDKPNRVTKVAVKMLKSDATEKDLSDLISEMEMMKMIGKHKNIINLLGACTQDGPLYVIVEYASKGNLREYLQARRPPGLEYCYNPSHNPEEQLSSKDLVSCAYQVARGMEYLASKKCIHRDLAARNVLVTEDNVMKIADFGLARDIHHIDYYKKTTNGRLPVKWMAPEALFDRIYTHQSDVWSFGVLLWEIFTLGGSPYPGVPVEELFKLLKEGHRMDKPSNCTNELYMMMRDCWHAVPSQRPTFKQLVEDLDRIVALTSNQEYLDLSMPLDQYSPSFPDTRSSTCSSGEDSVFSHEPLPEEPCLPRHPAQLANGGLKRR
Experimental: as §1, §3

JAK2 = biological target: T4, JAK2 (Homo sapiens, UniProt O60674); assay: In vitro kinase activity (Millipore KinaseProfiler): JAK2; format: biochemical; conditions: no head or unit printed
T4 construct: purchased Millipore (KinaseProfiler service)
T4 sequence (O60674 whole entry, species assumed): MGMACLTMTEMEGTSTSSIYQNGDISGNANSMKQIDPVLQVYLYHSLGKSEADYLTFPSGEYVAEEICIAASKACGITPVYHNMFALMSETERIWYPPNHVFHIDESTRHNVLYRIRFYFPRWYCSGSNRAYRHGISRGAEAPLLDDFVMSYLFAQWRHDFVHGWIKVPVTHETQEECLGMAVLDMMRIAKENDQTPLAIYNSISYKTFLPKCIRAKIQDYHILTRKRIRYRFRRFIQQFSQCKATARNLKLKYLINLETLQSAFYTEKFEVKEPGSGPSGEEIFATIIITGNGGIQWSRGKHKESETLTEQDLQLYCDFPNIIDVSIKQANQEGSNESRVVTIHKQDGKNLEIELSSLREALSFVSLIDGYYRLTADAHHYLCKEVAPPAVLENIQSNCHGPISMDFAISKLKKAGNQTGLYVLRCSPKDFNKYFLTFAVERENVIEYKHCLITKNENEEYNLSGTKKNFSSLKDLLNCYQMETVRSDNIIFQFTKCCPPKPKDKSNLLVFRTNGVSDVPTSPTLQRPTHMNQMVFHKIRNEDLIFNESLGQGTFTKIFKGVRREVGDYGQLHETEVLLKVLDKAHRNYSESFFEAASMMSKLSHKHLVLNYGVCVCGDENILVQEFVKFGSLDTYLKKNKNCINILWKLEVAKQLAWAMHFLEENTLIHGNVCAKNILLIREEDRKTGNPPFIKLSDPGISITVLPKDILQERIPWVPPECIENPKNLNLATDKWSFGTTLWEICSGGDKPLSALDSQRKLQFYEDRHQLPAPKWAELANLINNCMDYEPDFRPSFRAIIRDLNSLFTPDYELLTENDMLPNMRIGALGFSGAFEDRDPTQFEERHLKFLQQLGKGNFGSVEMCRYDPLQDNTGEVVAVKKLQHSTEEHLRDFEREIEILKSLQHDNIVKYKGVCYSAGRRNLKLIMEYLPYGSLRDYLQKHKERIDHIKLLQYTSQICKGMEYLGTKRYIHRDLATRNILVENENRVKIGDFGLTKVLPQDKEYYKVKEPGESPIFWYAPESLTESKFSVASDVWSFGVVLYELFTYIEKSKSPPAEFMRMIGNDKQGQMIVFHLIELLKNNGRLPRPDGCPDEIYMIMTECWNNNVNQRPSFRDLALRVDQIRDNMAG
Experimental: as §1, §3

ROCK-I = biological target: T5, ROCK-I (Homo sapiens, UniProt Q13464); assay: In vitro kinase activity (Millipore KinaseProfiler): ROCK-I; format: biochemical; conditions: no head or unit printed
T5 construct: purchased Millipore (KinaseProfiler service)
Experimental: as §1, §3

Aurora-A = biological target: T6, Aurora-A (Homo sapiens, UniProt O14965); assay: In vitro kinase activity (Millipore KinaseProfiler): Aurora-A; format: biochemical; conditions: no head or unit printed
T6 construct: purchased Millipore (KinaseProfiler service)
T6 sequence (O14965 whole entry): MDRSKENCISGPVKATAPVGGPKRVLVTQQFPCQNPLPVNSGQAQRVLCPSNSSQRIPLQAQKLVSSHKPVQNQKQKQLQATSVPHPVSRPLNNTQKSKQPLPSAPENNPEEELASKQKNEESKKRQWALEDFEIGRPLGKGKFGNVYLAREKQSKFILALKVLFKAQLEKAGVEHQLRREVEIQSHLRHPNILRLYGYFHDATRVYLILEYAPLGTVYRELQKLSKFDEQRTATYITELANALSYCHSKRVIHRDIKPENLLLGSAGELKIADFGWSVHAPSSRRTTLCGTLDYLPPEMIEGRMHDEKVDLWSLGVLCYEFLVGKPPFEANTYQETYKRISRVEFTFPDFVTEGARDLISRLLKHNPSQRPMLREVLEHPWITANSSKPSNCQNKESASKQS
Experimental: as §1, §3

Tie2 = biological target: T7, Tie2 (Homo sapiens, UniProt Q02763); assay: In vitro kinase activity (Millipore KinaseProfiler): Tie2; format: biochemical; conditions: no head or unit printed
T7 construct: purchased Millipore (KinaseProfiler service)
T7 sequence (Q02763 23-1124): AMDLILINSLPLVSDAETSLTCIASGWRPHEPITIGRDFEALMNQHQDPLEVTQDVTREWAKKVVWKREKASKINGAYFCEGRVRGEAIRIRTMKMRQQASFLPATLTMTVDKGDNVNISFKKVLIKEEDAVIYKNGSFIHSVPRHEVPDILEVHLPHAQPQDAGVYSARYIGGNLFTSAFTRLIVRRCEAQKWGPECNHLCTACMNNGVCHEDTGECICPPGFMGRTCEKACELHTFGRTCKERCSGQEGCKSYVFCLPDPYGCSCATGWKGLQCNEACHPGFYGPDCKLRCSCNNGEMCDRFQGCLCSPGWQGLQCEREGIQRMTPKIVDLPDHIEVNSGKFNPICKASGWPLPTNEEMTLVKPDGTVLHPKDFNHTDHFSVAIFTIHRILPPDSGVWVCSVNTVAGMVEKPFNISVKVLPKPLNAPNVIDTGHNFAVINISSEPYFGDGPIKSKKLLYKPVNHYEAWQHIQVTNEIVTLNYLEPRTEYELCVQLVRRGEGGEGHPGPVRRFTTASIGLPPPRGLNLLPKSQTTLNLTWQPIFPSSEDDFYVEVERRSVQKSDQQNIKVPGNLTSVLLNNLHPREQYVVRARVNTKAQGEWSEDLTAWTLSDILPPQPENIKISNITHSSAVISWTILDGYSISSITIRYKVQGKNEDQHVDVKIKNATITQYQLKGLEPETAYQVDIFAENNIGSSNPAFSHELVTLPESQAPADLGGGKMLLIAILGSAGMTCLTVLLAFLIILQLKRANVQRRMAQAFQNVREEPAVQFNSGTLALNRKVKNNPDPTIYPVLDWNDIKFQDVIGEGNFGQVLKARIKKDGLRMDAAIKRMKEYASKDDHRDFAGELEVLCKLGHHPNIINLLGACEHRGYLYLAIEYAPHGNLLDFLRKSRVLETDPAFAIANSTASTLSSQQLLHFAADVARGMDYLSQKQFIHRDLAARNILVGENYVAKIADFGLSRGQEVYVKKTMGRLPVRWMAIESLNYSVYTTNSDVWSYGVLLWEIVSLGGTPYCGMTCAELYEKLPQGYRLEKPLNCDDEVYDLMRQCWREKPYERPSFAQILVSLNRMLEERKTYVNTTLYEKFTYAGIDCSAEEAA
Experimental: as §1, §3

cKit(D816H) = biological target: T8, cKit(D816H) (Homo sapiens, UniProt P10721, D816H); assay: In vitro kinase activity (Millipore KinaseProfiler): cKit(D816H); format: biochemical; conditions: no head or unit printed
T8 construct: purchased Millipore (KinaseProfiler service)
T8 sequence (P10721 26-976 D816H): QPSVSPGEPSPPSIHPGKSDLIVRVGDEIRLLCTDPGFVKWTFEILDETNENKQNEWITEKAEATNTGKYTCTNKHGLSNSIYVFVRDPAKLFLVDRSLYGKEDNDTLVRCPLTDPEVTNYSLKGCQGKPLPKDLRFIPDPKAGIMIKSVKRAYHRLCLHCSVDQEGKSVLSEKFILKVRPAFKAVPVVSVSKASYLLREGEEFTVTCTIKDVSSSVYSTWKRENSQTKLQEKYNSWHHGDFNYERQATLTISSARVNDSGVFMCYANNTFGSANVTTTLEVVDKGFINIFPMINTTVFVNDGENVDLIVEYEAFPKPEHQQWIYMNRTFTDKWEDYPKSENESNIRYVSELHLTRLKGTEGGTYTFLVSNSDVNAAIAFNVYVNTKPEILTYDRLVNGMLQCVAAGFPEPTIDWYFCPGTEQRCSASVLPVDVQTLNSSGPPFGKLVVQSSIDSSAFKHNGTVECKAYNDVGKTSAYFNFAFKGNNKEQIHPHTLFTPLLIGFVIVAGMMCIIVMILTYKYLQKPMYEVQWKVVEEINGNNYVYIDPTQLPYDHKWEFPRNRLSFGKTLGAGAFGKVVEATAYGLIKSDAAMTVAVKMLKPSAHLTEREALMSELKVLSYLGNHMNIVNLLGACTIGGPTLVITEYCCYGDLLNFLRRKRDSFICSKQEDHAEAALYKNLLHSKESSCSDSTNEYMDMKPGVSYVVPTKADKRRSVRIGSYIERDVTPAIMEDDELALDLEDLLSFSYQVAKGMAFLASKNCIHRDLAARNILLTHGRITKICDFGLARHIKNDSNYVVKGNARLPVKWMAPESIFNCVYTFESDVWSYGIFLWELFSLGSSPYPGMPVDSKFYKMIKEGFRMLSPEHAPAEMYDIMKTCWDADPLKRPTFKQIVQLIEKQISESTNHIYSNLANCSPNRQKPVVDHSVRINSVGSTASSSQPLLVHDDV
Experimental: as §1, §3

Fyn = biological target: T9, Fyn (Homo sapiens, UniProt P06241); assay: In vitro kinase activity (Millipore KinaseProfiler): Fyn; format: biochemical; conditions: no head or unit printed
T9 construct: purchased Millipore (KinaseProfiler service)
Experimental: as §1, §3

c-RAF = biological target: T10, c-RAF (Homo sapiens, UniProt P04049); assay: In vitro kinase activity (Millipore KinaseProfiler): c-RAF; format: biochemical; conditions: no head or unit printed
T10 construct: purchased Millipore (KinaseProfiler service)
Experimental: as §1, §3

CC(C)(C)c1ccc(S(=O)(=O)NCc2ccc(C(=O)Nc3cccnc3)cc2)cc1 [Example 38, 4-((4-tert-Butylphenylsulfonamido)methyl)-N-(pyridin-3-yl)benzamide]
effect on glycolysis (lactate) in cells with wild-type VHL (RCC4/VHL): did not affect glycolysis
inhibition at 5 µM (RCC4 [1]): ~60%
MLK1 kinase activity (MLK1): 97%
PDK1 kinase activity (PDK1): 105%
glucose uptake in VHL-deficient RCC4 cells (RCC4 [2]; 3H-2-deoxyglucose, two days of treatment, 5 μM): impaired glucose uptake
concentration dependence of glucose uptake inhibition in RCC4 (RCC4 [2]; increasing concentrations, FIG. 3C): dose-dependent manner
FGFR1 kinase activity (FGFR1): 107%
JAK2 kinase activity (JAK2): 113
ROCK-I kinase activity (ROCK-I): 74%
Aurora-A kinase activity (Aurora-A): 108%
Tie2 kinase activity (Tie2): 111%
cKit(D816H) kinase activity (cKit(D816H)): 99
Fyn kinase activity (Fyn): 91%
c-RAF kinase activity (c-RAF): 103
